The values below are quoted from earlier work in US20110160154A1, “SUBSTITUTED PIPERAZINES” (Auspex Pharmaceuticals, Inc., priority 2007, published 2011).

What is called IC50 is the concentration that inhibits the measured activity by half.

Molecules are shown by their SMILES.

In data set [1] the test system is late sodium current (INa). The following applies: literature value (Antzelevitch et al. 2004); read-out: IC50 for inhibition of late sodium current (INa).
The conditions of data set [2]: background statement; ranolazine must be taken frequently.

For the compound `COc1ccccc1OCC(O)CN1CCN(CC(=O)Nc2c(C)cccc2C)CC1` (centres unmarked) [ranolazine, N-(2,6-dimethyl-phenyl)-2-{4-[2-hydroxy-3-(2-methoxy-phenoxy)-propyl]-piperazin-1-yl}-acetamide], the IC50 in data set [1] was 5 to 21 µM. The half-life result in data set [2] is listed as “less than two”.
